According to ChEMBL document CHEMBL5143733, “Discovery of (E)-3-(3-((2-Cyano-4'-dimethylaminobiphenyl-4-ylmethyl)cyclohexanecarbonylamino)-5-fluorophenyl)acrylic Acid Methyl Ester, an Intestine-Specific, FXR Partial Agonist for the Treatment of Nonalcoholic Steatohepatitis” (J Med Chem, 2022):
Calls of active or inactive are those of the source. The calls are words filed in the database; no cut-off is given here.

Key:
[1] = target: Peroxisome proliferator-activated receptor delta (Homo sapiens, UniProt Q03181); experiment: Agonist activity at human PPAR-delta expressed in CHO-K1 cells by PathHunter assay; type: cell-based
Chain of Peroxisome proliferator-activated receptor delta (Q03181 whole entry): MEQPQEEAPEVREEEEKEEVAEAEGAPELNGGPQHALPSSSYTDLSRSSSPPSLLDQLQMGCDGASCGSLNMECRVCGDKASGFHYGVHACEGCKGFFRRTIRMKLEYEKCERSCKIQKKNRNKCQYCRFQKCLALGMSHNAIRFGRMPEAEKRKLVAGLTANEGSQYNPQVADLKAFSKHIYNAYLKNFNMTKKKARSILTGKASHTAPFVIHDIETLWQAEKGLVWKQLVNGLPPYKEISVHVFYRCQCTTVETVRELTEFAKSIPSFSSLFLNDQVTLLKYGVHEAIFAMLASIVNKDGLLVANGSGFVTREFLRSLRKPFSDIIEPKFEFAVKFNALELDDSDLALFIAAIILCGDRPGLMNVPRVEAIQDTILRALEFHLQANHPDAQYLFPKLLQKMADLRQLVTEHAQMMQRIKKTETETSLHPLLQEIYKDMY

[2] = Half life in Sprague-Dawley rat at 5 mg/kg, iv measured up to 24 hrs by HPLC analysis; type: ADME, organism-based; conditions: in vivo
[3] = system: Mus musculus; experiment: Antifibrotic activity in CDAHFD-induced nonalcoholic steatohepatitis C57BL/6J mouse model assessed as reduction in TIMP-1 gene expression at 80 mg/kg, po administered daily for 4 weeks; type: functional, organism-based
[4] = system: Mus musculus; experiment: Antiinflammatory activity in CDAHFD-induced nonalcoholic steatohepatitis C57BL/6J mouse model assessed as reduction in IL-1beta gene expression at 80 mg/kg, po administered daily for 4 weeks; type: functional, organism-based
[5] = Toxicity in CDAHFD-induced nonalcoholic steatohepatitis C57BL/6J mouse model assessed as change in amount of food intake at 80 mg/kg, po administered daily for 4 weeks; type: organism-based; conditions: in vivo, 672 h
[6] = Clearance in Sprague-Dawley rat at 5 mg/kg, iv measured up to 24 hrs by HPLC analysis; type: ADME, organism-based; conditions: in vivo
[7] = Toxicity in CDAHFD-induced nonalcoholic steatohepatitis C57BL/6J mouse model assessed as change in body weight at 80 mg/kg, po administered daily for 4 weeks; type: organism-based; conditions: in vivo, 672 h
[8] = Toxicity in CDAHFD-induced nonalcoholic steatohepatitis C57BL/6J mouse model assessed as reduction in serum AST level at 80 mg/kg, po administered daily for 4 weeks; type: organism-based; conditions: in vivo, 672 h
[9] = target: T1, Bile acid receptor (Mus musculus) (UniProt Q60641); experiment: In vivo activation of FXR in CDAHFD-induced nonalcoholic steatohepatitis C57BL/6J mouse model assessed as induction of FGF15 gene expression at 80 mg/kg, po administered daily for 4 weeks; type: functional, organism-based
T1 sequence (whole entry): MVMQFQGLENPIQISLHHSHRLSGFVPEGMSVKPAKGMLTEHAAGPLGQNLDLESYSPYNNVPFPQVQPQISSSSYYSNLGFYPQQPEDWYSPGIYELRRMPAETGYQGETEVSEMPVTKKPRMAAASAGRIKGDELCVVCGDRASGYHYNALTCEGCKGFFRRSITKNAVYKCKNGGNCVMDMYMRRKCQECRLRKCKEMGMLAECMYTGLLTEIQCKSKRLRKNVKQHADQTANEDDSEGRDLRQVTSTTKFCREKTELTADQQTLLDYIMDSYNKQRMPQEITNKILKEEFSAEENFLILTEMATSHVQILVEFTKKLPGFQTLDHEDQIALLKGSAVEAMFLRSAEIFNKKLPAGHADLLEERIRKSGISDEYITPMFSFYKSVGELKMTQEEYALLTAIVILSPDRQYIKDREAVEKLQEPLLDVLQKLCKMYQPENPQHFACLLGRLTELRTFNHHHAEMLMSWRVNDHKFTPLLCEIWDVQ

[10] = target: T1, Bile acid receptor (Mus musculus); experiment: In vivo activation of FXR in CDAHFD-induced nonalcoholic steatohepatitis C57BL/6J mouse model assessed as induction of IBABP gene expression at 80 mg/kg, po administered daily for 4 weeks; type: functional, organism-based
[11] = Toxicity in CDAHFD-induced nonalcoholic steatohepatitis C57BL/6J mouse model assessed as increase in liver wet weight at 80 mg/kg, po administered daily for 4 weeks […]; type: organism-based; conditions: in vivo, 672 h
[12] = target: T1, Bile acid receptor (Mus musculus); experiment: In vivo activation of FXR in CDAHFD-induced nonalcoholic steatohepatitis C57BL/6J mouse model assessed as induction of SHP gene expression at 80 mg/kg, po administered daily for 4 weeks; type: functional, organism-based
[13] = target: T2, Bile acid receptor (Homo sapiens) (UniProt Q96RI1); experiment: Partial agonist activity at FXR (unknown origin) expressed in CHO-K1 cells coexpressed with beta-galactosidase incubated for 3 to 16 hrs by PathHunter chemiluminescence based assay relative to GW4064; type: cell-based; conditions: filed as partial agonist, time 3-16 hrs
T2 sequence (whole entry): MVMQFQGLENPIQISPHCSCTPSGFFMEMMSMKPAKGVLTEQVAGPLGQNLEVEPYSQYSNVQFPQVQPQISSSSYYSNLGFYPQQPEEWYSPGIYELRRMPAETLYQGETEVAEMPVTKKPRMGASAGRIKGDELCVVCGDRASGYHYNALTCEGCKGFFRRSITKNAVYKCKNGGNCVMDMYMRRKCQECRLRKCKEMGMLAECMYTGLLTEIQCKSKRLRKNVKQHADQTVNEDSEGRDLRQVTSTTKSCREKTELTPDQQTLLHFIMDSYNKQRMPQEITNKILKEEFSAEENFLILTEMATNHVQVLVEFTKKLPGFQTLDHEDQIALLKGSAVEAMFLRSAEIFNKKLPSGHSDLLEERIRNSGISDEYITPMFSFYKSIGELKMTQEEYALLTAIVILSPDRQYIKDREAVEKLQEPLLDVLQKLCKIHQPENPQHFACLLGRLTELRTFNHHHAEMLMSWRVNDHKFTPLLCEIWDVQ

[14] = target: T1, Bile acid receptor (Mus musculus); experiment: In vivo activation of FXR in CDAHFD-induced nonalcoholic steatohepatitis C57BL/6J mouse model assessed as reduction in liver fibrosis at 80 mg/kg, po administered daily for 4 weeks by picrosirius red staining method; type: functional, organism-based
[15] = Stability in Sprague-Dawley rat plasma at 80 mg/kg, po measured after 5 hrs by RP-HPLC analysis; type: ADME, organism-based; conditions: in vivo
[16] = Drug metabolism in Sprague-Dawley rat plasma assessed as retention time of unidentified major metabolite at 5 mg/kg, iv upto 1 hr by RP-HPLC analysis; type: ADME, organism-based; conditions: in vivo
[17] = system: Mus musculus; experiment: Antifibrotic activity in CDAHFD-induced nonalcoholic steatohepatitis C57BL/6J mouse model assessed as reduction in COL1A1 gene expression at 80 mg/kg, po administered daily for 4 weeks; type: functional, organism-based
[18] = AUClast in Sprague-Dawley rat at 5 mg/kg, iv measured up to 24 hrs by HPLC analysis; type: ADME, organism-based; parameters: time < 24 hrs, dose 5 mg/kg, route iv; conditions: in vivo, 24 h
[19] = Oral bioavailability in Sprague-Dawley rat at 80 mg/kg measured up to 24 hrs by HPLC analysis; type: ADME, organism-based; conditions: in vivo
[20] = Volume of distribution at steady state in Sprague-Dawley rat at 5 mg/kg, iv measured up to 24 hrs by HPLC analysis; type: ADME, organism-based; conditions: in vivo, read-out: Vdss
[21] = Drug metabolism in Sprague-Dawley rat plasma assessed as (E)-3-(3-((2-Cyano-4'-dimethylaminobiphenyl-4-ylmethyl)-cyclohexanecarbonylamino)-5-fluorophenyl)acrylic Acid metabolite formation at 5 mg/kg, iv measured up to 20 to 60 mins by RP-HPLC analysis; type: ADME, organism-based; conditions: in vivo, time 20-60 min
[22] = target: T1, Bile acid receptor (Mus musculus); experiment: In vivo activation of FXR in […]-induced nonalcoholic steatohepatitis C57BL/6J mouse model assessed as improved glucose tolerance measured up to 120 mins by glucose tolerance test; type: functional
[23] = AUClast in Sprague-Dawley rat at 80 mg/kg, po measured up to 24 hrs by HPLC analysis; type: ADME, organism-based; parameters: dose 80 mg/kg, time < 24 hrs, route po; conditions: in vivo
[24] = target: T1, Bile acid receptor (Mus musculus); experiment: In vivo activation of FXR in CDAHFD-induced nonalcoholic steatohepatitis C57BL/6J mouse model assessed as induction of OST-alpha gene expression at 80 mg/kg, po administered daily for 4 weeks; type: functional, organism-based

Compound CCCc1c(OCCCOc2ccc(OCC(=O)O)cc2)ccc(C(C)=O)c1O has an EC50 [1] of 6 nM.
In the case of COC(=O)/C=C/c1cc(F)cc(N(Cc2ccc(-c3ccc(N(C)C)cc3)c(C#N)c2)C(=O)C2CCCCC2)c1, the half-life [2] is reported as 4.8 min, the Activity [3] is reported as “Active” and the Activity [4] is reported as “Active”. For the same compound, the Activity [5] was “Non-Toxic”, the clearance [6] was 93.3 mL/min/kg and the Activity [7] was “Non-Toxic”. The Activity [8] was “Non-Toxic”, the Activity [9] was “Active” and the Activity [10] was “Active”. The Activity [11] was “Non-Toxic”, the Activity [12] was “Active” and the Emax [13] was 53%. For the same compound, the Activity [14] was “Active”, the Stability [15] was “Unstable” and the Retention_time [16] was 5.25 min. The Activity [17] was “Active”, the AUClast [18] was 900 ng·h/mL and the F [19] was 4%. The Vd [20] was 0.7 L/kg, the Drug metabolism [21] was “Metabolite_Detected” and the Activity [22] was “Active”. The AUClast [23] was 1500 ng·h/mL and the Activity [24] was “Active”.
